Drawing on patent US20230117034A1, “PYRAZOLOTRIAZINES” (Bayer Aktiengesellschaft, priority 2019, published 2023), this text covers IC50 for 23 compounds.

Assay [1] relates to CAL-120, human breast adenocarcinoma cells. Description: Proliferation assay CAL-120 (crystal violet, 4 days). It is filed as cell-based. Particulars: Homo sapiens, CAL-120, 96 h, CAL-120 cells, median, read-out: Prolif-CAL-120, IC50-[mol/l] (median). The essentials:
(§1)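 IC50 from a 4-parameter fit of crystal violet absorbance (595 nm), scaled between the day-of-dosing plate (0%) and vehicle cells (100%). MDA-MB-231 or CAL-120 cells were treated for 4 days with 0.01–10 micromol/L compound in 0.1% DMSO after 24 h attachment.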

Assay [2] has as its system MDA-MB-231, human breast cancer cells. Description: Proliferation assay MDA-MB-231 (crystal violet, 4 days). It is filed as cell-based. The following applies: Homo sapiens, MDA-MB-231, 96 h, MDA-MB-231 cells, median, read-out: Prolif-MDA MB-231, IC50-[mol/l] (median). The procedure, abridged: as §1
For a further assay, the target named is CDK12/CycK (Homo sapiens, UniProt Q9NYV4). The assay can be described thus: CDK12/CycK high ATP kinase assay (TR-FRET, 2 mM ATP). Type of assay: biochemical. The following applies: 2 mM ATP (high ATP); median; read-out: CDK12/CyclinK, 2 mM ATP (high ATP), IC50-[mol/l] (median). The procedure, abridged: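 Read-out is TR-FRET (Eu-anti-rabbit IgG, anti-phospho-c-Myc Ser62 antibody, streptavidin-XL665) after EDTA stop. Reaction ran 60 min at 22 °C using 1 µM biotin-peptide and high ATP (2 mM) with roughly 0.75 nM recombinant CDK12/CycK, after 15 min compound pre-binding; normalised emission ratios yield IC50.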
Sequence of CDK12/CycK (Q9NYV4 with tags, fused parts or gaps): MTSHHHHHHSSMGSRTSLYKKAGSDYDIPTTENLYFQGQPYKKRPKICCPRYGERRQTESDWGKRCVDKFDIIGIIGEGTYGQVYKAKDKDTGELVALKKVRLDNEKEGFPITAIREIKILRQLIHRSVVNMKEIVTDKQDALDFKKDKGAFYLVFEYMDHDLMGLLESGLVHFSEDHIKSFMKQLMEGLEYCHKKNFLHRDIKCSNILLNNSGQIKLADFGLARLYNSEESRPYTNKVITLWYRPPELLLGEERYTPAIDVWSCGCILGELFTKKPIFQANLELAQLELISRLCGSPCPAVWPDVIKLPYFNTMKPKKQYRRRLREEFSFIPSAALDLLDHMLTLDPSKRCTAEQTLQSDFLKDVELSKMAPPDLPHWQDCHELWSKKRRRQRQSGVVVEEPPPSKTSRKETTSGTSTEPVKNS
Sequence of CDK12/CycK (O75909 1-300 partner limits assumed): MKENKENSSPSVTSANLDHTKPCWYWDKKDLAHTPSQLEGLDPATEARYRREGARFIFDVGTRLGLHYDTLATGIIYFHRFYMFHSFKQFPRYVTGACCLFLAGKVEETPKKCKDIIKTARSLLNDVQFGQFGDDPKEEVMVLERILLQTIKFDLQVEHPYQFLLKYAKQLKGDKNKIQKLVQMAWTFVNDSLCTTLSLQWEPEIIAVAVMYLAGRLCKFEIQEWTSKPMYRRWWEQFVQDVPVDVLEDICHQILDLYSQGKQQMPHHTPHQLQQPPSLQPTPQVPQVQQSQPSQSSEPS

Turning to `CCc1cnn2c(NCc3nc4c(OC)cccc4[nH]3)nc(N3CCOCC3)nc12` [Example 433, 8-ethyl-N-[(4-methoxy-1H-benzimidazol-2-yl)methyl]-2-(morpholin-4-yl)pyrazolo[1,5-a][1,3,5]triazin-4-amine], the results for the IC50 (in assay [1]; in assay [2]; on CDK12/CycK) were 13.1 nM, 40.3 nM and 2700 nM, respectively.

As for `CCc1cnn2c(NCc3nc4ccccc4[nH]3)nc(N3CCN(C)CC3)nc12` [Example 434, N-[(1H-benzimidazol-2-yl)methyl]-8-ethyl-2-(4-methylpiperazin-1-yl)pyrazolo[1,5-a][1,3,5] triazin-4-amine], the IC50 in assay [1] was 10.2 nM; in assay [2], 44.7 nM; on CDK12/CycK, greater than 17600 nM.

In the case of `Fc1ccc2[nH]c(CNc3nc(N4CCOCC4)nc4c(-c5ccnnc5)cnn34)nc2c1F` [Example 417, N-[(4,5-difluoro-1H-benzimidazol-2-yl)methyl]-2-(morpholin-4-yl)-8-(pyridazin-4-yl)pyrazolo[1,5-a][1,3,5]triazin-4-amine], the IC50 in assay [1] was 9.17 nM; in assay [2], 83.1 nM; on CDK12/CycK, greater than 7750 nM.

In the case of `Cn1cc(-c2cnn3c(NCc4nc5c(F)c(F)ccc5[nH]4)nc(N4CCOCC4)nc23)cn1` [Example 418, N-[(4,5-difluoro-1H-benzimidazol-2-yl)methyl]-8-(1-methyl-1H-pyrazol-4-yl)-2-(morpholin-4-yl)pyrazolo[1,5-a][1,3,5]triazin-4-amine], the IC50 in assay [1] was 64.4 nM; in assay [2], 246 nM; on CDK12/CycK it was greater than 20000 nM.

Take `Brc1cnn2c(NCc3nc4ccccc4[nH]3)nc(OC3CCNCC3)nc12` [Example 411, N-[(1H-benzimidazol-2-yl)methyl]-8-bromo-2-[(piperidin-4-yl)oxy]pyrazolo[1,5-a][1,3,5]triazin-4-amine]: the IC50 in assay [1] was 79 nM; in assay [2], 138 nM; at CDK12/CycK it was greater than 20000 nM.

Take `CN1CCN(c2nc(NCc3nc4ccccc4[nH]3)n3ncc(C4CC4(F)F)c3n2)CC1` (stereo not drawn) [Example 428, N-(1H-benzimidazol-2-ylmethyl)-8-(2,2-difluorocyclopropyl)-2-(4-methylpiperazin-1-yl)pyrazolo[1,5-a][1,3,5]triazin-4-amine]: the IC50 in assay [1] is 47.4 nM; in assay [2] it was 174 nM; on CDK12/CycK, greater than 20000 nM.

Regarding `CN1CCN(c2nc(NCc3nc4c(F)c(F)ccc4[nH]3)n3ncc(C4CC4(F)F)c3n2)CC1` (stereo not drawn) [Example 429, N-[(4,5-difluoro-1H-benzimidazol-2-yl)methyl]-8-(2,2-difluorocyclopropyl)-2-(4-methylpiperazin-1-yl)pyrazolo[1,5-a][1,3,5]triazin-4-amine], the IC50 was 8.86 nM in assay [1], 32.4 nM in assay [2] and greater than 20000 nM at CDK12/CycK.

As for `Clc1cc2nc(CNc3nc(N4CCOCC4)nc4c(-c5cncs5)cnn34)[nH]c2cc1Cl` [Example 443, N-[(5,6-dichloro-1H-benzimidazol-2-yl)methyl]-2-(morpholin-4-yl)-8-(1,3-thiazol-5-yl)pyrazolo[1,5-a][1,3,5]triazin-4-amine], the IC50 in assay [1] is 5.31 nM; in assay [2] it was 6.17 nM; at CDK12/CycK, 3980 nM.

Take `CCc1cnn2c(NCc3nc4ccccc4[nH]3)nc(N3CCOCC3)nc12` [Example 431, N-[(1H-benzimidazol-2-yl)methyl]-8-ethyl-2-(morpholin-4-yl)pyrazolo[1,5-a][1,3,5]triazin-4-amine]: the IC50 in assay [1] stood at 7.02 nM; in assay [2], 28.4 nM; on CDK12/CycK it was 2810 nM.

Turning to `CN(C)CCOc1nc(NCc2nc3ccccc3[nH]2)n2ncc(Br)c2n1` [Example 399, N-[(1H-benzimidazol-2-yl)methyl]-8-bromo-2-[2-(dimethylamino)ethoxy]pyrazolo[1,5-a][1,3,5]triazin-4-amine], the figures for the IC50 (in assay [1]; in assay [2]; at CDK12/CycK) were 83 nM, 384 nM and greater than 20000 nM, respectively.

Take `Fc1cccc2[nH]c(CNc3nc(N4CCN5CCC4CC5)nc4c(C(F)(F)F)cnn34)nc12` [Example 410, 2-(1,4-diazabicyclo[3.2.2]nonan-4-yl)-N-[(4-fluoro-1H-benzimidazol-2-yl)methyl]-8-(trifluoromethyl)pyrazolo[1,5-a][1,3,5]triazin-4-amine]: the IC50 was determined as 3.07 nM in assay [1], 8.27 nM in assay [2] and 1580 nM on CDK12/CycK.

Consider `Cc1cnn2c(NCc3nc4c(F)c(F)ccc4[nH]3)nc(N3CC4CCC(C3)N4)nc12` [Example 400, 2-(3,8-diazabicyclo[3.2.1]octan-3-yl)-N-[(4,5-difluoro-1H-benzimidazol-2-yl)methyl]-8-methylpyrazolo[1,5-a][1,3,5]triazin-4-amine], for which the IC50 was 5.23 nM in assay [1], 20.3 nM in assay [2] and greater than 16700 nM at CDK12/CycK.

Take `Fc1ccc2[nH]c(CNc3nc(N4CCOCC4)nc4c(C(F)(F)F)cnn34)nc2c1F` [Example 426, N-[(4,5-difluoro-1H-benzimidazol-2-yl)methyl]-2-(morpholin-4-yl)-8-(trifluoromethyl)pyrazolo [1,5-a][1,3,5]triazin-4-amine]: the IC50 is 3.57 nM in assay [1], 4.19 nM in assay [2] and 23.9 nM on CDK12/CycK.

For the compound `Cc1cnn2c(NCc3nc4c(F)c(F)ccc4[nH]3)nc(N(C)CC(C)(C)O)nc12` [Example 395, 1-[(4-{[(4,5-difluoro-1H-benzimidazol-2-yl)methyl]amino}-8-methylpyrazolo[1,5-a][1,3,5]triazin-2-yl)(methyl)amino]-2-methylpropan-2-ol], the IC50 in assay [1] amounted to 11.1 nM; in assay [2], 34 nM; on CDK12/CycK, 6400 nM.

Take `Cc1cnn2c(NCc3nc4c(F)c(F)ccc4[nH]3)nc(N3CCOCC3)nc12` [Example 392, N-[(4,5-difluoro-1H-benzimidazol-2-yl)methyl]-8-methyl-2-(morpholin-4-yl)pyrazolo[1,5-a][1,3,5]triazin-4-amine]: the IC50 came to 4.73 nM in assay [1], 11.1 nM in assay [2] and 4370 nM on CDK12/CycK.

Regarding `CC(C)(O)COc1nc(NCc2nc3ccccc3[nH]2)n2ncc(Br)c2n1` [Example 398, 1-[(4-{[(1H-benzimidazol-2-yl)methyl]amino}-8-bromopyrazolo[1,5-a][1,3,5]triazin-2-yl)oxy]-2-methylpropan-2-ol], the IC50 in assay [1] was 67.4 nM; in assay [2] it was 59.2 nM; at CDK12/CycK, 14600 nM.

Take `Fc1ccc2[nH]c(CNc3nc(N4CCN5CCC4CC5)nc4c(C(F)(F)F)cnn34)nc2c1F` [Example 407, 2-(1,4-diazabicyclo[3.2.2]nonan-4-yl)-N-[(4,5-difluoro-1H-benzimidazol-2-yl)methyl]-8-(trifluoromethyl)pyrazolo[1,5-a][1,3,5]triazin-4-amine]: the IC50 in assay [1] was 0.927 nM; in assay [2], 2.28 nM; at CDK12/CycK, 706 nM.

On to `Brc1cnn2c(NCc3nc4ccccc4[nH]3)nc(OCC3CC3)nc12` [Example 408, N-[(1H-benzimidazol-2-yl)methyl]-8-bromo-2-(cyclopropylmethoxy)pyrazolo[1,5-a][1,3,5]triazin-4-amine], for which the IC50 in assay [1] is 252 nM; in assay [2], 741 nM; at CDK12/CycK, greater than 20000 nM.

In the case of `CN(CC(C)(C)O)c1nc(NCc2nc3c(F)c(F)ccc3[nH]2)n2ncc(C(F)(F)F)c2n1` [Example 402, 1-{[4-{[(4,5-difluoro-1H-benzimidazol-2-yl)methyl]amino}-8-(trifluoromethyl)pyrazolo[1,5-a][1,3,5]triazin-2-yl](methyl)amino}-2-methylpropan-2-ol], the IC50 was 7.85 nM in assay [1], 8.56 nM in assay [2] and 224 nM on CDK12/CycK.

With `CN1CCN(c2nc(NCc3nc4c(F)c(F)ccc4[nH]3)n3ncc(-c4nccs4)c3n2)CC1` [Example 415, N-[(4,5-difluoro-1H-benzimidazol-2-yl)methyl]-2-(4-methylpiperazin-1-yl)-8-(1,3-thiazol-2-yl)pyrazolo[1,5-a][1,3,5]triazin-4-amine], the IC50 in assay [1] is 268 nM; in assay [2] it was 584 nM; on CDK12/CycK it was greater than 20000 nM.

With `COc1cccc2[nH]c(CNc3nc(N4CCOCC4)nc4c(-c5nccs5)cnn34)nc12` [Example 414, N-[(4-methoxy-1H-benzimidazol-2-yl)methyl]-2-(morpholin-4-yl)-8-(1,3-thiazol-2-yl)pyrazolo [1,5-a][1,3,5]triazin-4-amine], the IC50 in assay [1] was 80.4 nM; in assay [2], 687 nM; at CDK12/CycK, greater than 5710 nM.

As for `COc1cccc2nc(CNc3nc(N4CCN(C)CC4)nc4c(-c5nccs5)cnn34)[nH]c12` [Example 416, N-[(7-methoxy-1H-benzimidazol-2-yl)methyl]-2-(4-methylpiperazin-1-yl)-8-(1,3-thiazol-2-yl)pyrazolo[1,5-a][1,3,5]triazin-4-amine], the values for the IC50 (in assay [1]; in assay [2]; on CDK12/CycK) were 358 nM, 986 nM and greater than 20000 nM, respectively.

As to `Cc1cnn2c(NCc3nc4ccccc4[nH]3)nc(N(C)CC(C)(C)O)nc12` [Example 397, 1-[(4-{[(1H-benzimidazol-2-yl)methyl]amino}-8-methylpyrazolo[1,5-a][1,3,5]triazin-2-yl)(methyl)amino]-2-methylpropan-2-ol], the IC50 was 171 nM in assay [1], 399 nM in assay [2] and greater than 17500 nM on CDK12/CycK.
